ChEMBL document CHEMBL2007661, “Compounds: GSK PKIS; Assays: UNC Frye lab” (2012)
“And” between values parts separate entries of the source, which are not always exact repeats. Equal values may be shown once. One block for each compound: values may come before it.

Legend:
Conditions in all cases: at 1 µM
[1] = molecular target: T1, Inhibitor of nuclear factor kappa-B kinase subunit alpha (Homo sapiens) (UniProt O15111)
T1 sequence (whole entry): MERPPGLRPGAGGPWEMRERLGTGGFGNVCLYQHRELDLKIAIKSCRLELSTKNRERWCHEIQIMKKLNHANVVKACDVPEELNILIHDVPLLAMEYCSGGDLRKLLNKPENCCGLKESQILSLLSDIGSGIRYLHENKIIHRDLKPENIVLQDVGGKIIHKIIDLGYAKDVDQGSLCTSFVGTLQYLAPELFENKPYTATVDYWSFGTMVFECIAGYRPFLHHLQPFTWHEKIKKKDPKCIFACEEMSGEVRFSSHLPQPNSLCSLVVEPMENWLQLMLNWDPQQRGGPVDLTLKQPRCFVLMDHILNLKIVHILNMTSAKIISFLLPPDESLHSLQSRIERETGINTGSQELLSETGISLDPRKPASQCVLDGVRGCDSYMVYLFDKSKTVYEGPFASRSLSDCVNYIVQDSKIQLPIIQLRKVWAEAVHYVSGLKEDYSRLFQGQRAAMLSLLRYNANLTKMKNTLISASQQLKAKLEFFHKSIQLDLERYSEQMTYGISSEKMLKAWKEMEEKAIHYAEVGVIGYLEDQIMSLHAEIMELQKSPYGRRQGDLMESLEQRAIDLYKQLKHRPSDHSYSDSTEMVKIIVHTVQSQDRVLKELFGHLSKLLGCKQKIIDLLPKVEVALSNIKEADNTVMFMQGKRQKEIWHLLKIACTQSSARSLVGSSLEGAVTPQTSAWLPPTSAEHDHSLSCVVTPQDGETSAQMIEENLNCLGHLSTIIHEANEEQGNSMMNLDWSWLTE

[2] = molecular target: T2, Inhibitor of nuclear factor kappa-B kinase subunit beta (Homo sapiens) (UniProt O14920)
T2 sequence (whole entry): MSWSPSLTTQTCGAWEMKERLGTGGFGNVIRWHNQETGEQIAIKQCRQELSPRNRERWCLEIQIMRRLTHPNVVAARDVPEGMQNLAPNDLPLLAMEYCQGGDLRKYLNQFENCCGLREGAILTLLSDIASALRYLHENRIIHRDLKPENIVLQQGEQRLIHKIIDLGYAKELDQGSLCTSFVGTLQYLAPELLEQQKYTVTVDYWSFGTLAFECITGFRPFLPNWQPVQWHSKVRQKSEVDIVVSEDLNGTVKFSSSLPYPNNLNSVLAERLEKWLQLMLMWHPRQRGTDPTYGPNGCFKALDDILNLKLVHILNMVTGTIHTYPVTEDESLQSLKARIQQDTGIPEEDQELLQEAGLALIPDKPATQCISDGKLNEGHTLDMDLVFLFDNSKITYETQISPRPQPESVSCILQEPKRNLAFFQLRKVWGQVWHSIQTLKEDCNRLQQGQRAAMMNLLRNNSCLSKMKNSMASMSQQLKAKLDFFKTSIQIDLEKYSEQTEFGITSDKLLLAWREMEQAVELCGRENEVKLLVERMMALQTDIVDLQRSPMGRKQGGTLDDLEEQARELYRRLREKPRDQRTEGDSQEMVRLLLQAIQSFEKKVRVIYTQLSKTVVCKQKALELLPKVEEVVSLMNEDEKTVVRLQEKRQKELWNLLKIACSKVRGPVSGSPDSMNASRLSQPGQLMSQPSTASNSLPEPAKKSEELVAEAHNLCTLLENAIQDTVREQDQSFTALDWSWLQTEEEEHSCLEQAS

[3] = molecular target: T3, Serine/threonine-protein kinase TBK1 (Homo sapiens) (UniProt Q9UHD2)
T3 sequence (whole entry): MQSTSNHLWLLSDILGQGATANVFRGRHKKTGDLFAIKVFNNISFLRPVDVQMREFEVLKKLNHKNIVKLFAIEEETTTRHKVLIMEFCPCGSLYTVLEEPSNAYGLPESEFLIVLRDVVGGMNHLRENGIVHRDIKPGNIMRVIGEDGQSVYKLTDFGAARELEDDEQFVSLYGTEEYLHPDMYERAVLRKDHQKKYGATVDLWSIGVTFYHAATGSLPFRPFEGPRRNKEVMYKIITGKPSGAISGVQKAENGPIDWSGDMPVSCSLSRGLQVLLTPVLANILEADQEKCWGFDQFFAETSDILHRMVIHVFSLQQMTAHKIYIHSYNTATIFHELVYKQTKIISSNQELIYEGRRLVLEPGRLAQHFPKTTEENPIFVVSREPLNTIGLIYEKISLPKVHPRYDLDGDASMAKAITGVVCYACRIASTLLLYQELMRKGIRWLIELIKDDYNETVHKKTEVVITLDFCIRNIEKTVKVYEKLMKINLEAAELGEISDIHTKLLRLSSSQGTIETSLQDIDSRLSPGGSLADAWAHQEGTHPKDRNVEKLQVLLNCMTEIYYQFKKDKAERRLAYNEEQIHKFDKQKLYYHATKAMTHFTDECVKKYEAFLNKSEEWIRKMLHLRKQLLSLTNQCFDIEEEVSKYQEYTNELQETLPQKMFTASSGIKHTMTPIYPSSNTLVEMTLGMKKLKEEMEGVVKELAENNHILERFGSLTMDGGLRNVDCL

Structure (SMILES): Cc1ccc(C(=O)NC(C)C)cc1-c1ccc(C(=O)NCC2CC2)cc1
inhibition [1]: 0% and -2%
inhibition [2]: -1% and 3%
inhibition [3]: -1% and -2%

Structure (SMILES): COC(=O)Nc1nc2ccc(Sc3ccc(NC(=O)Nc4cc(C(F)(F)F)ccc4F)cc3)cc2[nH]1
inhibition [1]: 3%
inhibition [2]: -3%
inhibition [3]: -3%

Structure (SMILES): COc1ccc2ncn(-c3cc(O[C@H](C)c4ccccc4C(F)(F)F)c(C(N)=O)s3)c2c1
inhibition [1]: 0% and -1%
inhibition [2]: 0% and -2%
inhibition [3]: -8% and -6%

Structure (SMILES): FC(F)(F)c1ccc(-c2nn3ncccc3c2-c2ccnc(Nc3ccc4c(c3)OCCO4)n2)cc1
inhibition [1]: 1% and 0%
inhibition [2]: -1% and -3%
inhibition [3]: -5% and -7%

Structure (SMILES): N#Cc1c(NC(=O)c2cccc3ccccc23)sc2c1CCCC2
inhibition [1]: 2% and -1%
inhibition [2]: -2% and 0%
inhibition [3]: -4% and -3%

Second part, the compound after the results:

inhibition [1]: 3%
inhibition [2]: -5% and -6%
inhibition [3]: -4% and 0%
Structure (SMILES): C#Cc1cccc(Nc2ncnc3ccc(OCCCCNCCS(C)(=O)=O)cc23)c1

inhibition [1]: 0% and -3%
inhibition [2]: -2%
inhibition [3]: 23% and 21%
Structure (SMILES): NS(=O)(=O)c1cccc(Nc2cc(-c3ccc(F)cc3)n[nH]2)c1

inhibition [1]: 1%
inhibition [2]: -4% and -6%
inhibition [3]: -1% and 0%
Structure (SMILES): NS(=O)(=O)c1ccc(-c2cc3ccncc3cc2OCc2ccccc2)cc1

inhibition [1]: 1% and 2%
inhibition [2]: -3% and -1%
inhibition [3]: 2% and 1%
Structure (SMILES): NS(=O)(=O)c1cccc(-c2ccc3c(NC(=O)C4CC4)n[nH]c3c2)c1

inhibition [1]: -1% and 0%
inhibition [2]: 0% and -1%
inhibition [3]: -3% and -1%
Structure (SMILES): CS(=O)(=O)CCNCc1ccc(-c2ccc3ncnc(Nc4ccc(OCc5cccc(C(F)(F)F)c5)cc4)c3c2)o1

inhibition [1]: -1% and 17%
inhibition [2]: -2% and 0%
inhibition [3]: 6% and 3%
Structure (SMILES): CNC(=O)c1cccc(C#Cc2cncnc2Nc2ccc(OCc3cccc(F)c3)c(Cl)c2)c1
